In US20090048229A1, “Methods for promoting wakefulness” (priority 2007, published 2009):
Read-outs that look alike come from different tables or passages of the source.

Experiments:
[1] = target: AChE (Homo sapiens, UniProt P22303); format: biochemical
[2] = tested on: male CD IGS (Sprague Dawley derived) rats; experiment: Induction of hypothermia after subcutaneous administration; format: in vivo, rat
Text: Cholinergic agonists cause hypothermia through a central mechanism of action (Freedman et al, 1989. Direct measurement of muscarinic agents in the central nervous system of mice using ex vivo binding. Eur. J. Pharmacol. 174:253-260). […] Since a premise of the present invention is that carbomyl esters would liberate the conjugated amine in the CNS only after inhibition of acetylcholinesterase, induction of hypothermia provides a useful correlation with the acetylcholinesterase inhibition detected in vitro and in vivo.
Hypothermia was defined as a fall in temperature of >0.5° C.
Hypothermia is a marker of CNS penetration for ACHE inhibitors.
(§1) If less soluble, the maximum injection volume was 5 mL/kg.
(§2) Baseline temperatures were taken just before injection.

[3] = target: BuChE (Homo sapiens, UniProt P06276); experiment: In vitro screening assay, BuChE inhibition; format: biochemical
Sequence of BuChE (P06276 29-602): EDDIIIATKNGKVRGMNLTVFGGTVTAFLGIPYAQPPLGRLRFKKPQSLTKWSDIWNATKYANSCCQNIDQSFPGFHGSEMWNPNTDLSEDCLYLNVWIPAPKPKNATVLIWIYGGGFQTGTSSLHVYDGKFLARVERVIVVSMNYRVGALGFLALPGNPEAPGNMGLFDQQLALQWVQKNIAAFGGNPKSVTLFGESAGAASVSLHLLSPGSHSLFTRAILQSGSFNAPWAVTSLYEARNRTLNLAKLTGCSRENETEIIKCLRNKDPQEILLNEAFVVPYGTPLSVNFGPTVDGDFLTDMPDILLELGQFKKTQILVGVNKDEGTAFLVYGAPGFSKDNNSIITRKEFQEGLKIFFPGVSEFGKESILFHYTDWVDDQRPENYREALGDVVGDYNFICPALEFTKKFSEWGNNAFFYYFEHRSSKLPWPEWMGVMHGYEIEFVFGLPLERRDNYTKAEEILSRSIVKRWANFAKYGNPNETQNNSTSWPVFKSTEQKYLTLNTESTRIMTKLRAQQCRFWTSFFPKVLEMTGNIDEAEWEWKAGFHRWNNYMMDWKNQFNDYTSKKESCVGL
Text: An in vitro screening assay with various conjugates was completed according to the methods described in Ellman G L et al., Biochem Pharmacol., 7:88-95 (1961) and in Nadarajah B, J. Anal. Toxicol., 16:192-193 (1992), both of which are herein incorporated by reference in their entireties. The assay method was completed according to the following: […]

[4] = target: T1, human recombinant acetylcholinesterase (Homo sapiens, UniProt P22303); experiment: biochemical; settings: for inhibition at 10 µM: read-out: Inhibition of AChE (%) 10 μM
T1 construct: purchased Sigma Chemical Co (St. Louis, Mo.) C1682
T1 sequence (P22303 32-614): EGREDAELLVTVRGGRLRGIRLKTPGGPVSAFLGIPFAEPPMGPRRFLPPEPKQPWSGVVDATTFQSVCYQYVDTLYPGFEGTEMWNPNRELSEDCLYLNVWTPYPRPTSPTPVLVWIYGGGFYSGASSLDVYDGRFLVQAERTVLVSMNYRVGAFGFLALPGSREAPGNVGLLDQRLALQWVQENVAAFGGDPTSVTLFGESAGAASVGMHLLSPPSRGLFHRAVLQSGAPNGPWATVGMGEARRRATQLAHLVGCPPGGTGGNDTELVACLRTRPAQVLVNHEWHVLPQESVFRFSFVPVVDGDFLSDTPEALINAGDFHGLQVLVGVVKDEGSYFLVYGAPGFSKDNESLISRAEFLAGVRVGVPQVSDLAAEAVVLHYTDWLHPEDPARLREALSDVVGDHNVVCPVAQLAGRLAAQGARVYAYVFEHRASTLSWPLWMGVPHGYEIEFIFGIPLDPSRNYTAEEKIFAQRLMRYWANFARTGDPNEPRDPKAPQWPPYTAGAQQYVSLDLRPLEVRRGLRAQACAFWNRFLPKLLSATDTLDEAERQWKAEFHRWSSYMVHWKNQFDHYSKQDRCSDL
Experimental: All reagents employed in this experiment were of analytical grade. Acetylthiocholine iodide and 5,5′-dithiobis-(2-nitro)benzoic acid (DTNB) and human recombinant acetylcholinesterase (C1682) were purchased from Sigma Chemical Co (St. Louis, Mo.).
The enzyme, compound or stigmine and buffer were preincubated for 30 minutes. At the end of the preincubation period, the substrate acetylthiocholine was added. The final assay mixture contained 10 mM Tris-buffer (pH 8), 0.3 mM Acetylthiocholine and 0.33 mM DTNB and 0.08 U/ml enzyme. At least five (5) different concentrations of the compound or stigmine were assayed per IC50 experiment.
Hydrolysis of acetylthiocholine was monitored indirectly by measurement of the formation of the conjugate between thiocholine and DTNB.

[5] = Dose range for cholinergic effects / max tolerated dose; format: in vivo, rat; settings: s.c., rats
Experimental: as §1, §2

[6] = tested on: male Wistar rats; experiment: Wake promotion (EEG/EMG sleep-wake, locomotor activity, body temperature); format: in vivo, rat; settings: for duration of wakefulness: administered 5 hours after lights on (CT-5), FIG. 2
Experimental: Test compounds in various dose ranges or vehicle were administered to male Wistar rats 5 hours after lights on (CT-5). EEG, EMG, locomotor activity, drink- and food-related activity, and body temperature were concurrently monitored for 30 hr before and after treatment from rats living in separate isolated recording chambers. Sleep-wake discriminations were carried out using SCORE2004™, proprietary real-time hardware and software technology of Hypnion, Inc. (Lexington, Mass.). Comparisons were made between the reference compounds: d-amphetamine, rivastigmine, modafinil, and the following carbamoyl ester test compounds: […]

[7] = target: butylryl cholinesterase (Homo sapiens, UniProt P06276); experiment: Inhibition of butyrylcholinesterase; format: biochemical; settings: read-out: Inhibition of BuChE (%) 10 μM
Sequence of butylryl cholinesterase (P06276 29-602): as the sequence (P06276 29-602) above
Experimental: The inhibition of butylryl cholinesterase was determined using methods known in the art e.g., Alcala Molel M. et al. (2003) Characterization of the anticholinesterase activity of two new tacrin-huperzine A hybrids. Neuropharmacology, 44 (6), 749-755.

Sequence of AChE (P22303 32-614): as the sequence (P22303 32-614) above

Compound: C[C@@H](c1cccc(OC(=O)N[C@H]2C[C@@H]2c2ccccc2)c1)N(C)C (stereo in doubt) [Compound 2, S-riva-tranylcypromine]
- AChEI (%) 1 μM ([1]; 1 μM): 84%
- AChEI (%) 10 μM ([1]; 10 μM): 97%
- Hypothermia MED ([2]; s.c., rats): 10 mg/kg
- BuChEI (%) 1 μM [3]: 23%
- BuChEI (%) 10 μM ([3]; 10 μM): 67%
- IC50 [4]: 200 nM
- Max Tolerated Dose [5]: 30

Compound: C[C@@H](c1cccc(OC(=O)N2CCN(C3=Nc4ccccc4Oc4ccc(Cl)cc43)CC2)c1)N(C)C [Compound 3, S-riva-amoxapine]
- AChEI (%) 10 μM ([1]; 10 μM): 16%
- Hypothermia MED ([2]; s.c., rats): 10 mg/kg
- BuChEI (%) 10 μM ([3]; 10 μM): 6%
- IC50 [4]: 20900 nM
- Max Tolerated Dose [5]: ≧100

Compound: C[C@@H](c1cccc(OC(=O)N(C)CCCN2c3ccccc3CCc3ccccc32)c1)N(C)C [Compound 4, S-riva-desipramine]
- AChEI (%) 1 μM ([1]; 1 μM): 91%
- AChEI (%) 10 μM ([1]; 10 μM): 99%
- Hypothermia MED ([2]; s.c., rats): 3 mg/kg
- BuChEI (%) 1 μM [3]: 16%
- BuChEI (%) 10 μM ([3]; 10 μM): 60%
- IC50 [4]: 200 nM
- Max Tolerated Dose [5]: ≧100

Compound: Cc1ccccc1O[C@H](CCN(C)C(=O)Oc1cccc([C@H](C)N(C)C)c1)c1ccccc1 [Compound 5, S-riva-atomoxetine]
- AChEI (%) 1 μM ([1]; 1 μM): 29%
- AChEI (%) 10 μM ([1]; 10 μM): 89%
- Hypothermia MED (mg/kg) ([2]; s.c., rats): ≦1 mg/kg
- BuChEI (%) 10 μM ([3]; 10 μM): 14%
- Max Tolerated Dose [5]: ≧100

Compound: C[C@@H](c1cccc(OC(=O)N(C)CCC=C2c3ccccc3CCc3ccccc32)c1)N(C)C [Compound 5A, S-riva-nortriptyline]
- AChEI (%) 1 μM ([1]; 1 μM): 81%
- AChEI (%) 10 μM ([1]; 10 μM): 99%
- BuChEI (%) 1 μM [3]: 24%
- BuChEI (%) 10 μM ([3]; 10 μM): 55%
- IC50 [4]: 500 nM

Compound: C[C@@H](c1cccc(OC(=O)N(C)CCCC2c3ccccc3C=Cc3ccccc32)c1)N(C)C [Compound 6, S-riva-protriptyline]
- AChEI (%) 1 μM ([1]; 1 μM): 81%
- AChEI (%) 10 μM ([1]; 10 μM): 99%
- Hypothermia MED ([2]; s.c., rats): 100 mg/kg
- BuChEI (%) 1 μM [3]: 16%
- BuChEI (%) 10 μM ([3]; 10 μM): 53%
- IC50 [4]: 500 nM
- Max Tolerated Dose [5]: >100

Compound: C[C@@H](c1cccc(OC(=O)N(C)CCC(Oc2ccc(C(F)(F)F)cc2)c2ccccc2)c1)N(C)C (some centres unmarked) [Compound 7A, S-riva-fluoxetine]
- AChEI (%) 1 μM ([1]; 1 μM): 11%
- AChEI (%) 10 μM ([1]; 10 μM): 76%
- Hypothermia MED ([2]; s.c., rats): 3 mg/kg
- BuChEI (%) 10 μM ([3]; 10 μM): 15%
- IC50 [4]: 4800 nM
- Max Tolerated Dose [5]: ≧100

Compound: COCCCC/C(=N\OCCNC(=O)Oc1cccc([C@H](C)N(C)C)c1)c1ccc(C(F)(F)F)cc1 [Compound 8, S-riva-fluvoxamine]
- AChEI (%) 1 μM ([1]; 1 μM): 17%
- AChEI (%) 10 μM ([1]; 10 μM): 76%
- BuChEI (%) 10 μM ([3]; 10 μM): 6%
- IC50 [4]: 6100 nM

Compound: C[C@@H](c1cccc(OC(=O)N2CC[C@@H](c3ccc(F)cc3)[C@H](COc3ccc4c(c3)OCO4)C2)c1)N(C)C [Compound 9A, S-riva-paroxetine]
- AChEI (%) 1 μM ([1]; 1 μM): 9%
- AChEI (%) 10 μM ([1]; 10 μM): 69%
- BuChEI (%) 10 μM ([3]; 10 μM): 4%
- IC50 [4]: 9500 nM

Compound: C[C@@H](c1cccc(OC(=O)N(C)CC[C@H](Oc2cccc3ccccc23)c2cccs2)c1)N(C)C [Compound 10, S-riva-duloxetine]
- AChEI (%) 1 μM ([1]; 1 μM): 88%
- AChEI (%) 10 μM ([1]; 10 μM): 100%
- BuChEI (%) 10 μM ([3]; 10 μM): 36%
- IC50 [4]: 200 to 500 nM

Compound: C#CCN(C(=O)Oc1cccc([C@H](C)N(C)C)c1)[C@H](C)Cc1ccccc1 [Compound 11, S-riva-desmethylselegiline]
- AChEI (%) 1 μM ([1]; 1 μM): 13%
- AChEI (%) 10 μM ([1]; 10 μM): 52%
- BuChEI (%) 10 μM ([3]; 10 μM): 17%

Compound: C[C@@H](c1cccc(OC(=O)N(C)[C@@H](C)Cc2ccccc2)c1)N(C)C [Compound 13, S-riva-d-methamphetamine]
- AChEI (%) 1 μM ([1]; 1 μM): 51%
- AChEI (%) 10 μM ([1]; 10 μM): 97%
- Induction of hypothermia MED (mg/kg s.c.) ([2]; s.c., hypothermia = fall in temperature of >0.5° C.): 10 mg/kg s.c.
- fall in body temperature ([2]; subcutaneous administration): dose-related-related fall in body temperature
- duration of wakefulness [6]: dose-related increase in wakefulness
- inhibition at 10 µM [7]: 95%
- BuChEI (%) 1 μM [3]: 25%
- BuChEI (%) 10 μM ([3]; 10 μM): 95%
- IC50 ([4]; 30 min preincubation, 25° C., read-out: Inhibition of AChE IC50): 1100 nM
- inhibition at 10 µM [4]: 97%

Compound: C[C@@H](Cc1ccccc1)NC(=O)Oc1ccc2c(c1)[C@]1(C)CCN(C)[C@@H]1N2C [Compound 14, Physo-d-amphetamine]
- AChEI (%) 1 μM ([1]; 1 μM): 45%
- AChEI (%) 10 μM ([1]; 10 μM): 94%
- inhibition at 10 µM [7]: 28%
- BuChEI (%) 10 μM ([3]; 10 μM): 28%
- inhibition at 10 µM [4]: 94%

Compound: COc1ccccc1CC(C)N(C)C(=O)Oc1cccc([C@H](C)N(C)C)c1 (some centres unmarked) [Compound 15, S-riva-methoxyphenamine]
- AChEI (%) 1 μM ([1]; 1 μM): 49%
- AChEI (%) 10 μM ([1]; 10 μM): 95%
- inhibition at 10 µM [7]: 30%
- BuChEI (%) 10 μM ([3]; 10 μM): 30%
- IC50 [4]: 1100 nM
- inhibition at 10 µM [4]: 95%

Compound: CC(CC1CCCCC1)N(C)C(=O)Oc1cccc([C@H](C)N(C)C)c1 (some centres unmarked) [Compound 16, S-riva-propylhexedrine]
- Hypothermia MED ([2]; s.c., rats): 10 mg/kg
- IC50 [4]: 900 nM
- Max Tolerated Dose [5]: ≧100

Compound: C#CCN(C(=O)Oc1cccc([C@@H](C)N(C)C)c1)[C@H](C)Cc1ccccc1 [Compound 17, R-riva-desmethylselegiline]
- AChEI (%) 10 μM ([1]; 10 μM): 31%
- BuChEI (%) 10 μM ([3]; 10 μM): 12%

Compound: C#CCN(C(=O)Oc1ccc2c(c1)[C@]1(C)CCN(C)[C@@H]1N2C)[C@H](C)Cc1ccccc1 [Compound 18, Physo-desmethylselegiline]
- AChEI (%) 10 μM ([1]; 10 μM): 37%
- BuChEI (%) 10 μM ([3]; 10 μM): 8%

Compound: CN1CC[C@@]2(C)c3cc(OC(=O)Nc4ccccc4)ccc3N(C)[C@@H]12 [Phenserine, reference compound]
- AChEI (%) 1 μM [1]: 93%
- AChEI (%) 10 μM [1]: 99%
- BuChEI (%) 10 μM [3]: 42%

Compound: C[C@H](N)Cc1ccccc1 [d-amphetamine, reference compound]
- effect on body temperature ([6]; FIG. 4): increase in body temperature (hyperthermia)
- duration of wakefulness [6]: increased the duration of wakefulness

Compound: CN[C@@H](C)Cc1ccccc1 [d-methamphetamine, reference compound]
- locomotor hyperactivity / stimulant activity ([6]; FIG. 5): locomotor hyperactivity

Compound: NC(=O)C[S+]([O-])C(c1ccccc1)c1ccccc1 (centres unmarked) [modafinil, reference compound]
- duration of wakefulness [6]: increased the duration of wakefulness
